Counter-ions that a name gives are not always drawn. Some results are limits rather than exact numbers.

The values that follow come from patent publication US20070191345A1, “3-((Hetero)arylsulfonyl)-8-'(aminoalkyl)oxyquinolines as 5-ht6 receptor antagonists for the treatment of cns disorders” (GLAXO GROUP LIMITED, priority 2004, published 2007).

T1 sequence (P50406 whole entry): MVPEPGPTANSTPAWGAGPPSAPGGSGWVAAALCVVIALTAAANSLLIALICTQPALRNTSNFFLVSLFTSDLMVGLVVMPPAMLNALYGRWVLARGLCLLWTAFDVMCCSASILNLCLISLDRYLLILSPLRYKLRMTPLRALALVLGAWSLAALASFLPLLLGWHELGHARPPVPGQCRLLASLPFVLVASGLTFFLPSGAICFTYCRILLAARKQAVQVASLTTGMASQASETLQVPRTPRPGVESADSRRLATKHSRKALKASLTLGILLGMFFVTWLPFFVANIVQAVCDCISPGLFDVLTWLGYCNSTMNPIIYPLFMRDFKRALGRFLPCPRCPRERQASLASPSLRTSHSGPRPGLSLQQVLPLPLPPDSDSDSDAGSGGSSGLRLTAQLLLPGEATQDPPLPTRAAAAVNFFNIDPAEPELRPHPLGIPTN

One test has as its target T1, human cloned 5-HT6 receptors (Homo sapiens, UniProt P50406).
T1 construct: expressed in transfected cells; host or cells: HeLa cells expressing the cloned 5-HT6 receptor (washed membranes)
Nature of the test: Cyclase assay (cAMP production in washed membranes of HeLa 5HT6 cells, 5-HT stimulated). The test is classed as biochemical.
Conditions: not given
How it is done: Compounds of the invention may be tested for in vitro biological activity in accordance with the following cyclase assay:
0.5 μl of test compound in 100% dimethylsulfoxide (DMSO) was added to a white, solid 384 well assay plate (for dose response measurements the top of the concentration range is 7.5 μM final). 10 μl of washed membranes of HeLa 5HT6 cells (for preparation see WO 98/27081) in basic buffer (50 mM HEPES pH 7.4 (KOH), 10 mM MgCl2, 100 mM NaCl, 1 μl/ml 3-isobutyl-1-methylxanthine (IBMX) (Sigma-Aldrich)) was added to all wells followed by 10 μl 2×ATP buffer (100 μl/ml ATP and 1 μl/ml 3-Isobutyl-1-methylxanthine (IBMX) (Sigma-Aldrich)) with 5-HT (at a concentration equivalent to a dose response of 4×EC50). The resultant mixture was then incubated at room temperature for 30-45 minutes to allow cAMP production.
cAMP production was then measured using the DiscoveRx™ HitHunter™ chemiluminescence cAMP assay kit (DiscoveRx Corporation, 42501 Albrae Street, Fremont, Calif. 94538; Product Code: 90-0004L) or any other suitable cAMP measurement assay.
IC50 values were estimated from arbitrary designated unit (ADU) measurements from a Perkin Elmer Viewlux instrument using a four parameter logistic curve fit within EXCEL (Bowen, W. P. and Jerman, J. C. (1995), Nonlinear regression using spreadsheets. Trends in Pharmacol. Sci., 16, 413-417). Functional Ki values were calculated using the method of Cheng, Y. C. and Prussof, W. H. (Biochemical Pharmacol (1973) 22 3099-3108). pIC50 and fpKi are the negative log10 of the molar IC50 and functional Ki respectively.
(In general: Changes in cAMP serve as a functional read-out for many G protein-coupled receptors.)
With `O=S(=O)(c1ccccc1)c1cnc2c(OCC3CC4CCN3CC4)cccc2c1` (stereo not drawn) [Example E22, 8-[(1-Azabicyclo[2.2.2]oct-2-ylmethyl)oxy]-3-(phenylsulfonyl) quinoline, hydrochloride], the Ki is under 10 nM.

Staying with this test, now noted: membranes of HeLa 5HT6 cells; 5-HT at 4×EC50; functional Ki calculated by Cheng-Prusoff from IC50; read-out: fpKi (functional pKi, antagonist potency for the 5-HT6 receptor) (converted).
`CN1CCCC(Oc2cccc3cc(S(=O)(=O)c4ccccc4)cnc23)C1` (stereo not drawn) [Example E23, 8-[(1-Methyl-3-piperidinyl)oxy]-3-(phenylsulfonyl) quinoline, hydrochloride]: the Ki was under 10 nM.
Same read-out and setting: as for `O=S(=O)(c1ccccc1)c1cnc2c(OC3CCCNC3)cccc2c1` (stereo not drawn) [Example E15, 3-(Phenylsulfonyl)-8-(3-piperidinyloxy) quinoline, hydrochloride], the figure is under 10 nM.
Still for that read-out and setting: the result for `CN1CC[C@@H](Oc2cccc3cc(S(=O)(=O)c4ccccc4)cnc23)C1` [Example E17, 8-[[(3R)-1-Methyl-3-pyrrolidinyl]oxy}-3-(phenylsulfonyl) quinoline, hydrochloride] reads under 10 nM; that for `O=S(=O)(c1ccccc1)c1cnc2c(OC[C@H]3CCCN3)cccc2c1` [Example E7, 3-(Phenylsulfonyl)-8-{[(2R)-2-pyrrolidinylmethyl]oxy}quinoline, hydrochloride], under 10 nM; that for `O=S(=O)(c1ccccc1)c1cnc2c(OCC3COCCN3)cccc2c1` (stereo not drawn) [Example E24, 8-[(3-Morpholinylmethyl)oxy]-3-(phenylsulfonyl) quinoline, hydrochloride], under 10 nM.
Same read-out and setting: as for `CN1CCC[C@H]1COc1cccc2cc(S(=O)(=O)c3ccccc3)cnc12` [Example E2b, 8-({[(2S)-1-Methyl-2-pyrrolidinyl]methyl}oxy)-3-(phenylsulfonyl) quinoline, hydrochloride], the figure is under 10 nM.
In the case of `CN(C)CCOc1cccc2cc(S(=O)(=O)c3ccccc3)cnc12` [Example E1b, [2-(3-Phenylsulfonylquinoline-8-yloxy)ethyl]dimethylamine, hydrochloride], the Ki is under 10 nM.
On the same count and under the same terms, as for `O=S(=O)(c1ccccc1)c1cnc2c(O[C@@H]3CCNC3)cccc2c1` [Example E5, 3-(Phenylsulfonyl)-8-[(3R)-3-pyrrolidinyloxy]quinoline, hydrochloride], the figure is under 10 nM; as for `CC(Oc1cccc2cc(S(=O)(=O)c3ccccc3)cnc12)C(C)N(C)C` (stereo not drawn) [Example E6, Dimethyl(1-methyl-2-{[(3-(phenylsulfonyl)-8-quinolinyl]oxy}propyl)amine, hydrochloride], under 10 nM; as for `O=S(=O)(c1ccccc1)c1cnc2c(OCCN3CCCC3)cccc2c1` [Example E4, 3-(Phenylsulfonyl)-8-{[2-(1-pyrrolidinyl)ethyl]oxy}quinoline, hydrochloride], under 10 nM.
`O=S(=O)(c1ccccc1)c1cnc2c(OC[C@@H]3CCCN3)cccc2c1` [Example E3, 3-(Phenylsulfonyl)-8-{[(2S)-2-pyrrolidinylmethyl]oxy}quinoline, hydrochloride]: the Ki is under 10 nM.
